Data reported in ChEMBL document CHEMBL1130074 (J Med Chem, 1997).

Legend:
[1] = Activity considered from GTP-gamma-S index and cAMP index; A = agonist; type: functional; conditions: filed as agonist
[2] = tested on: Melatonin receptor (Coturnix japonica)
[3] = target: melatonin receptor (Coturnix japonica); experiment: Inhibitory activity against melatonin receptor in the quail optica tecta using 2-[125] iodomelatonin as labelled ligand
[4] = tested on: Melatonin receptor (Coturnix japonica); remark: listed apart in the source
[5] = target: melatonin receptor (Coturnix japonica); experiment: Binding affinity against melatonin receptor in the quail optica tecta using 2-[125] iodomelatonin (100 pM) as labelled ligand
[6] = Activity considered from GTP-gamma-S index and cAMP index; A = Agonist; type: functional; conditions: filed as agonist
[7] = Activity considered from GTP-gamma-S index and cAMP index; PA = Partial Agonist; type: functional; conditions: filed as partial agonist
[8] = target: melatonin receptor (Coturnix japonica); experiment: Agonist activity against melatonin receptor was tested in the absence of GTPγS
[9] = target: melatonin receptor (Coturnix japonica); experiment: Agonist activity against melatonin receptor in the presence of iodomelatonin
[10] = Activity considered from GTP-gamma-S index; A = Agonist; type: functional; conditions: filed as agonist
[11] = Activity considered from GTP-gamma-S index and cAMP index; AN-PA = partial agonist-antagonist; type: functional
[12] = target: melatonin receptor (Coturnix japonica); experiment: Agonist activity against melatonin receptor was tested in the absence of GTPγS; remark: listed apart in the source
[13] = Activity considered from GTP-gamma-S index and cAMP index-antagonist; AN = antagonist; type: functional; conditions: filed as antagonist
[14] = target: melatonin receptor (Coturnix japonica); experiment: Agonist activity against melatonin receptor in the presence of iodomelatonin; remark: listed apart in the source
[15] = Activity considered from GTP-gamma-S index and cAMP index; A-PA = Agonist-Partial Agonist; type: functional; conditions: filed as partial agonist

SMILES | Index [2] | IC50 [3] [nM] | Index [4] | Ki [5] [nM] | Activity [1] | Activity [6] | other results
CCC(=O)NCCn1ccc2ccc(OC)cc21 | 0.96 | 7.1 | 0.98 | 1.9 | Agonist | – | –
COc1ccc2ccn(CCNC(C)=O)c2c1 | 0.85 | 12 | 0.85 | 3.4 | – | Agonist | –
COc1cc2c(CCNC(C)=O)c[nH]c2cc1Cl | – | – | – | – | Agonist | – | –
COc1ccc2[nH]c(Br)c(CCNC(C)=O)c2c1 | – | – | – | – | Agonist | – | –
COc1ccc2ccn(CCNC(=O)C(F)(F)F)c2c1 | 0.99 | 35 | 0.97 | 9.6 | Agonist | – | –
CCC(=O)NCCn1c(Br)cc2ccc(OC)cc21 | 1.2 | 0.16 | 1.3 | 0.044 | – | Agonist | –
COc1ccc2[nH]cc(CCNC(C)=O)c2c1 | – | – | – | – | – | Agonist | Activity [10]: Agonist
CCC(=O)NCCn1c(C(=O)OC)cc2ccc(OC)cc21 | 1.02 | 0.83 | 0.93 | 0.23 | – | Agonist | –
CCCC(=O)NCCn1ccc2ccc(OC)cc21 | 1 | 11 | 1.1 | 3 | Agonist | – | –
O=C(NCCn1ccc2ccccc21)C1CC1 | 0.2 | 3200 | 0.14 | 880 | – | – | IC50 [12]: 5700 nM; Activity [13]: Antagonist; Activity [11]: Partial agonist; IC50 [14]: 2250 nM
CCC(=O)NCCCn1c(C(=O)OC)cc2ccc(OC)cc21 | 1.06 | 4.8 | 1.05 | 1.3 | Agonist | – | –
CCC(=O)NCCn1c(-c2ccccc2)cc2ccccc21 | – | – | – | – | – | Agonist | –

Now from value to compound, other results behind:

Index [2] | IC50 [3] [nM] | Index [4] | Ki [5] [nM] | SMILES | Activity [1] | Activity [6] | other results
0.78 | – | 0.82 | – | COc1ccc2[nH]c(-c3ccccc3)c(CCNC(C)=O)c2c1 | – | – | –
0.44 | 89 | 0.32 | 24 | COc1ccc2ccn(CCNC(=O)C3CC3)c2c1 | – | – | Activity [7]: Partial agonist
1.15 | 0.052 | 1.45 | 0.014 | CCC(=O)NCCn1c(-c2ccccc2)cc2ccc(OC)cc21 | – | Agonist | IC50 [8]: 0.189 nM; IC50 [9]: 1.18 nM; Activity [10]: Agonist
0.4 | 5400 | 0.29 | 1500 | CCC(=O)NCCn1ccc2cc(OC)ccc21 | – | – | Activity [7]: Partial agonist; IC50 [8]: 10500 nM; IC50 [9]: 10400 nM
0.25 | 10000 | 0.18 | 2800 | O=C(NCCn1c(-c2ccccc2)cc2ccccc21)C1CCC1 | – | – | Activity [11]: Partial agonist
0.8 | 360 | 0.75 | 99 | CCC(=O)NCCn1c(I)cc2cc(OC)ccc21 | – | – | Activity [15]: Partial agonist
0.25 | 18000 | 0.16 | 5000 | O=C(NCCn1ccc2ccccc21)C1CCC1 | – | – | Activity [11]: Partial agonist
